# In patent publication US20250327028A1, “ENGINEERED PLATELETS AS TARGETED PROTEIN DEGRADERS” (Wisconsin Alumni Research Foundation, priority 2024, published 2025):
# Tested on: 4T1-Luc tumors
# Test: Treatment efficacy in post-surgery BALB/c mice with orthotopic 4T1-Luc breast cancer
# Type: in vivo
# Conditions: 2×10^8 platelets i.v. or free HAC 5 mg/kg i.p., every third day for 4 times
# Description: Evaluation of treatment efficacy and biosafety in post-surgical 4T1 tumor-bearing mice: Post-surgery BALB/c mice with orthotopic 4T1-Luc-breast cancer were used to evaluate the tumor recurrence, metastasis, and biosafety profiles after iDePLT or eDePLT treatments. The treatment efficacy of iDePLT was also studied in the post-surgery NSG mice with orthotopic patient-derived xenografts (PDX) breast cancer.
# Establishment of post-surgery models with BALB/c mice: 1×10^6 4T1-Luc cells were suspended in a PBS containing 50% Matrigel® (Corning®/354234). Female 8-week-old BALB/c mice were anesthetized and injected with 50 μL of the cell suspensions into the fourth mammary gland fat pads. After the tumor volumes reached about 100-200 mm^3, the tumor-bearing mice were anesthetized and placed under the microscope, followed by surgical resection to totally remove the visible tumor tissues. Following wound closure, the post-surgery mice were randomly assigned to different treatment groups.
# Evaluation of treatment efficacy and biosafety in post-surgery BALB/c mice: As for the treatments with platelets, the platelets were freshly isolated from the healthy female BALB/c mice and suspended in PBS for intravenous (i.v.) injection after the necessary engineering. The free iHAC and eHAC were intraperitoneally (i.p.) injected after dispersing in the formulation of 10% DMSO, 40% polyethylene glycol 300 (PEG300), 5% Tween TM-80, and 45% saline. From the same day after surgery, the mice were anesthetized and i.p. injected with D-luciferin potassium salt (150 mg/kg) in 100 μL in PBS. The bioluminescence of post-surgery mice in each group was detected by Perkin Elmer IVIS every five days from the day of surgery, and intensity was analyzed by Living Image Software v.4.3.1. […] During the treatment course, the body weight of each post-surgery mouse was monitored daily. […]
smiles,measurement,value
"Cc1sc2c(c1C)C(c1ccc(Cl)cc1)=N[C@@H](CC(=O)NCc1cn(CCCC(=O)N(CC#N)S(=O)(=O)c3ccc(C(=O)NCCCn4c(Sc5cc6c(cc5I)OCO6)nc5c(N)ncnc54)cc3)nn1)c1nnc(C)n1-2 [iHAC, (S)—N-(3-(6-amino-8-((6-iodobenzo[d][1,3]dioxol-5-yl)thio)-9H-purin-9-yl)propyl)-4-(N-(4-(4-((2-(4-(4-chlorophenyl)-2,3,9-trimethyl-6H-thieno[3,2-f][1,2,4]triazolo[4,3-a][1,4]diazepin-6-yl)acetamido)methyl)-1H-1,2,3-triazol-1-yl)butanoyl)-N-(cyanomethyl)sulfamoyl)benzamide]",lung metastasis (bioluminescence),started to exhibit obvious lung metastasis from day 15 after surgery
same,tumor recurrence at the surgical site (bioluminescence),"showed some anti-relapse effect during the dosing time, but the mice finally showed substantially recurrent tumors on day 20"
